Values belong to the compound of their own block, whether it stands above or below them.
Assays:
recombinant PHGDH = recombinant PHGDH (Homo sapiens (Human), UniProt O43175); assay: In vitro enzymatic activity of PHGDH by fluorescence kinetic method; type: biochemical; details: recombinant PHGDH 30 ng/μL, NADH fluorescence at 456 nm
Method: The activity of recombinant PHGDH was measured by monitoring the reduced nicotinamideadenine dinucleotide (NADH) to nicotinamideadenine dinucleotide (NAD^+) change in fluorescence emission at 456 nm. PHGDH (final concentration of 30 ng/μL) was first pre-incubated with enzyme samples in the assay buffer (25 mM HEPES, pH 7.1, 400 mM KCl, 5 μM phosphopyridoxa (PLP), 0.5 mM α-ketoglutarate, 150 μM NADH, PSAT1) for 10 min in 96-well plate, then 10 μL of DMSO (control) or a small molecule of DMSO solution was added, shaken at 550 rpm for 5 minutes at 25° C. and balanced for 5 minutes. […] The reaction was started by adding L-phospho-O-serine (Pser) solution. The UV-visible microplate reader was used to monitor the change of NADH consumption at 456 nm with time. Protein activity was assessed by using an initial rate of reaction within 30 s, at which time NADH consumption was linear over time. The enzymatic inhibition ability of sixty-three compounds was first measured at 50 μM, compounds with percentage inhibition of PHGDH larger than 50% were selected for further studies, and IC50 values were obtained (Table 3).

MDA-MB-468 Cells = assay: Cell cycle analysis by PI staining and flow cytometry; type: cell-based; details: MDA-MB-468, 24 h, various concentrations
Method: MDA-MB-468 Cells (300,000 cells/well) in exponential growth were plated into 6-well culture plates and then treated in triplicate with or without various concentrations of PKUMDL-WL-2101. After 24 h, cells were harvested by trypsinization and centrifuged, and then fixed in 70% ice-cold ethanol, washed twice with 1×PBS, and kept at 4° C. overnight. The fixed cells were afterwards washed in 1×PBS and resuspended in 1×PBS containing 0.5% triton-x-100, 50 μg/ml Prodiumiodide (PI) and 50 μg/ml DNase-free RNase. The cell suspension was incubated in the dark for 30 min at 37° C. and analyzed by using a BD FACSCanto™ cytometer.

[1] = tested on: PHGDH-insensitive breast cancer cells MDA-MB-231; assay: MTT cell viability assay, MDA-MB-231; type: cell-based; details: Homo sapiens, 72 h
Excerpt: (§1) The biological activities of the compounds at the cellular level were investigated. A series of cancer cells and normal mammary epithelial cells were selected, and the experimental method of MTT (3-(4,5)-dimethylthiahiazo (-z-y 1)-3,5-di-phenytetrazoliumromide) was used.
(§2) The specific method: firstly, PHGDH-sensitive breast cancer cells MDA-MB-468 (5,000 cells/well) and HCC70 (5,000 cells/well), PHGDH-insensitive breast cancer cells MCF-7 (3,000 cells/well), MDA-MB-231 (2,000 cells/well) and ZR-75-1 (4,000 cells/well), colon cancer cell DLD-1 (2,000 cells/well) and normal breast epithelial cells MCF-10A (3,000 cells/well) in the exponential growth were plated into 96-well culture plates and treated in triplicate with or without various concentrations of activated compounds from the enzymatic bioassays. They adhered to the wall over night. The compounds were added from stock solutions in DMSO and the final concentration of DMSO in the medium was 0.2%. After 72 h, 20 μL 5 mg/ml MTT was added to each well and incubated for at least 4 h. […] The number of viable cells was assessed by spectrophotometry at 570 nm, and calculated as the percentage of absorbance of treated cells relative to that of solvent controls. Results were expressed as a percentage of viable cells and the EC50 was calculated by using the Hill equation.

[2] = tested on: PHGDH-insensitive breast cancer cells ZR-75-1; assay: MTT cell viability assay, ZR-75-1; type: cell-based; details: Homo sapiens, 72 h
Excerpt: as §1, §2

MDA-MB-468 xenografts = assay: Mouse xenograft model, compounds injected separately; type: in vivo; details: 20 mg/kg/day IP; for inhibitory effects on MDA-MB-468 xenografts (tumor volume): after 30 days of drug delivery, vs vehicle; for tolerability (body weight): over the course of the experiments
Method: All animal experiments were performed in compliance with guidelines of the Animal Welfare Act and the guide for the care and use of laboratory animals following protocols approved by the Institutional Animals Care and Use Committee (IACUC). […] The tumor volumes were measured every two days and calculated by using the following formula width^2 (mm)×length (mm)×0.5.

colon cancer cell DLD-1 = assay: MTT cell viability assay, DLD-1; type: cell-based; details: Homo sapiens, 72 h, colon cancer cells
Excerpt: as §1, §2

[3] = tested on: PHGDH-sensitive breast cancer cells MDA-MB-468; assay: MTT cell viability assay, MDA-MB-468; type: cell-based; details: Homo sapiens, 72 h
Excerpt: as §1, §2

[4] = tested on: normal breast epithelial cells MCF-10A; assay: MTT cell viability assay, MCF-10A; type: cell-based; details: Homo sapiens, 72 h
Excerpt: as §1, §2

[5] = tested on: PHGDH-sensitive breast cancer cells HCC70; assay: MTT cell viability assay, HCC70; type: cell-based; details: Homo sapiens, 72 h
Excerpt: as §1, §2

[6] = tested on: PHGDH-insensitive breast cancer cells MCF-7; assay: MTT cell viability assay, MCF-7; type: cell-based; details: Homo sapiens, MCF7, 72 h
Excerpt: as §1, §2

Sequence of recombinant PHGDH (O43175 whole entry): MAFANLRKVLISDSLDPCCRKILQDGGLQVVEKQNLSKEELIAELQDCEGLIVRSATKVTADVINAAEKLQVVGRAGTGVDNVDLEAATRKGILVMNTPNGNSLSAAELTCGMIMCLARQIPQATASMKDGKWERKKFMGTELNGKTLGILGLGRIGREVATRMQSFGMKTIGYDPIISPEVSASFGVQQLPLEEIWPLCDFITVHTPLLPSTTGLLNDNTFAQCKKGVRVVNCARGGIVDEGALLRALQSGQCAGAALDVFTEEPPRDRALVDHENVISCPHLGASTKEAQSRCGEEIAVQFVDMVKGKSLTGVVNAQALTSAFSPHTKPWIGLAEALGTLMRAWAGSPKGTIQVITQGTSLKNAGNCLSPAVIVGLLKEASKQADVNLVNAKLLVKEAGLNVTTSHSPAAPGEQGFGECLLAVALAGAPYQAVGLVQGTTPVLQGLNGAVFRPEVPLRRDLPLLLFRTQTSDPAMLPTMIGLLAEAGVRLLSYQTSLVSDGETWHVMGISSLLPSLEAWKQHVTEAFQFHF

Compound: O=C(N/N=C/c1cc([N+](=O)[O-])ccc1O)c1ccc(O)cc1O [PKUMDL-WL-2101, (E)-2,4-dihydroxy-N′-(2-hydroxy-5-nitrobenzylidene)benzohydrazide]
IC50 (recombinant PHGDH): 34.8 ± 3.6 µM
effect on cell cycle (MDA-MB-468 Cells): arrested the cell cycle at the G0/G1-phase in a dose-dependent manner
EC50 [1]: 27.7 µM
EC50 [2]: 83.4 µM
inhibitory effects on MDA-MB-468 xenografts (tumor volume) (MDA-MB-468 xenografts): substantial inhibitory effects
tolerability (body weight) (MDA-MB-468 xenografts): maintain normal body weight
EC50 (colon cancer cell DLD-1): 18.3 µM
EC50 [3]: 7.7 µM
EC50 [4]: 45.8 µM
EC50 [5]: 10.8 µM
EC50 [6]: 139 µM

Compound: O=C(N/N=C/c1cc([N+](=O)[O-])ccc1O)c1ccc(C(F)(F)F)cc1 [PKUMDL-WL-2128]
IC50 (recombinant PHGDH): 36.1 ± 4.2 µM

Compound: CCNC(=S)N/N=C\c1ccc(-c2ccc(C(=O)O)c(Cl)c2)o1 [PKUMDL-WL-2201, (Z)-2-chloro-4-(5-((2-(ethylcarbamothioyl) hydrazono)methyl)furan-2-yl) benzoic acid]
IC50 (recombinant PHGDH): 35.7 ± 8.6 µM
effect on cell cycle (MDA-MB-468 Cells): arrested the cell cycle at the G0/G1-phase in a dose-dependent manner
EC50 [1]: > 200 µM
EC50 [2]: 125 µM
inhibitory effects on MDA-MB-468 xenografts (tumor volume) (MDA-MB-468 xenografts): substantial inhibitory effects
tolerability (body weight) (MDA-MB-468 xenografts): maintain normal body weight
EC50 (colon cancer cell DLD-1): 167 µM
EC50 [3]: 6.9 µM
EC50 [4]: 64.7 µM
EC50 [5]: 10 µM
EC50 [6]: > 200 µM

Compound: NNC(=S)N/N=C/c1ccc(-c2ccc(C(=O)O)cc2)o1 [PKUMDL-WL-2222, (E)-4-(5-((2-(hydrazinecarbonothioyl) hydrazono)methyl)furan-2-yl) benzoic acid]
IC50 (recombinant PHGDH): 16.7 ± 1.6 µM

Compound: CCNC(=S)N/N=C/c1ccc(-c2ccc(C(=O)O)cc2)o1 [PKUMDL-WL-2226, (E)-4-(5-((2-(ethylcarbamothioyl) hydrazono)methyl)furan-2-yl) benzoic acid]
IC50 (recombinant PHGDH): 35.5 ± 1.1 µM

Compound: CCNC(=S)N/N=C/c1ccc(-c2ccc([N+](=O)[O-])cc2)o1 [PKUMDL-WL-2228, (E)-N-ethyl-2-((5-(4-nitrophenyl)furan-2-yl)methylene) hydrazinecarbothioamide]
IC50 (recombinant PHGDH): 37 ± 2.8 µM

Compound: CCNC(=S)N/N=C/c1ccc(-c2ccc(O)cc2)o1 [PKUMDL-WL-2229, (E)-N-ethyl-2-((5-(4-hydroxyphenyl)furan-2-yl)methylene) hydrazinecarbothioamide]
IC50 (recombinant PHGDH): 30.3 ± 4.5 µM

More lines, in order of falling IC50 (recombinant PHGDH), values ahead:

IC50 (recombinant PHGDH): 38.9 ± 1.2 µM
Compound: NNC(=S)N/N=C/c1ccc(-c2ccc(S(N)(=O)=O)cc2)o1 [PKUMDL-WL-2225, (E)-4-(5-((2-(hydrazinecarbonothioyl) hydrazono)methyl)furan-2-yl) benzenesulfonamide]

IC50 (recombinant PHGDH): 29.8 ± 9.4 µM
Compound: COC(=O)c1ccc(-c2ccc(/C=N/NC(=S)Nc3ccc([N+](=O)[O-])cc3)o2)cc1 [PKUMDL-WL-2212, (E)-Methyl 4-(5-((2-((4-nitrophenyl)carbamothioyl) hydrazono)methyl)furan-2-yl) benzoate]

IC50 (recombinant PHGDH): 8.9 ± 1.8 µM
Compound: COC(=O)c1ccc(-c2ccc(/C=N/NC(=S)NN)o2)cc1 [PKUMDL-WL-2220, (E)-Methyl 4-(5-((2-(hydrazinecarbonothioyl) hydrazono)methyl)furan-2-yl) benzoate]
